# Results reported in patent US9726663B2, “Method of identifying or evaluating synergistic combinations of actives and compositions containing the same” (The Procter & Gamble Company, priority 2012, dated 2017).
# Columns and labels:
# [1] = test system: human, dermal fibroblasts (BJ cell line); assay: Extracellular acidification rate (glycolysis) of fibroblasts, XF Extracellular Flux Analyzer; format: cell-based
# Method: (§1) With regard to the fibroblasts discussed above in FIGS. 5A, 5B, SC, 5D, 5E, 6, 7A, 7B, 7C, 7D, 7E and 8 frozen, human dermal fibroblasts were obtained from the BJ cell line commercially available from ATCC, Bethesda, Md. The fibroblasts were grown to 70-80% confluence in a fibroblast culture medium of Eagle's Minimum Essential Medium (“EMEM”) supplemented with 10% fetal bovine serum (“FBS”) and gentamicin/amphotericin B ×500 solution (EMEM and FBS are available from ATCC and gentamicin/amphotericin B ×500 solution is available from Invitrogen). […] Each well included 100 μL of the fibroblast medium described above. A test medium was made from Dulbecco's Modified Eagle Medium (available from Seahorse Bioscience), 25 mM Glucose and 1 mM pyruvate. The test medium was warmed to 37° C. and the pH adjusted to 7.4. The cells were grown and plated at 37° C. and 5% CO2 air. The fibroblast medium in the wells was replaced by the test medium 1 hour prior to taking measurements. Oxygen consumption rate and extracellular acidification rate may be detected using an XF Extracellular Flux Analyzer or equivalent. The device should be capable of non-lethally and simultaneously detecting metabolic indicators of the oxphos and glycolysis pathways in a controlled environment, as well as providing […]. The cells may be provided in a multi-well plate suitable for use with the instrument (e.g., 24-well or 96 well plate) and washed prior to testing. The cells may be washed by any suitable means known in the art (e.g., using a Seahorse Biosciences XF prep station). It may be desirable to use a suitable prep station such as an XF prep station available from Seahorse Biosciences). When washing the cells, it may be desirable to remove the medium from the wells and wash the cells three times with a suitable amount of test medium (e.g., 180 μL in a 96-well plate or 600 μL in a 24-well plate). After washing the cells, a suitable amount (e.g., 180 μL) of an appropriate test medium is placed in each well, and the cells are equilibrated at 37° C. in a CO2-free incubator for 1-1.5 hours prior to taking placing the plate in the instrument for testing. Following the equilibration period, load the plate containing the cells into the instrument and equilibrate according to manufacturer's instructions. The entire test is conducted at 37° C. In some embodiments, the instrument may be to provide a three minute mix cycle, a two minute wait cycle, and a 3 minute measurement cycle for keratinocytes and a two minute mix cycle, two minute wait cycle, and 3 minute measurement cycle for fibroblasts. The cycles should be repeated for at least 88 minutes. It is to be appreciated that the cycles and times may be modified according to cell type and experiment design, as desired. The following example illustrates how the method herein can be used to identify synergistic combinations of skin care actives. Hydrogen peroxide is a well known ROS, and is used in this example to illustrate the undesirable metabolic effects associated with exposure of a cell to an oxidative stressor. The hydrogen peroxide was prepared at 10X working concentration in the fibroblast test medium described above. The test agents are niacinamide (also known as vitamin B3) and tocoquinone both commercially available from Sigma. The test agents were each prepared at 10× the final working concentration in the fibroblast test medium described above to provide a test agent solution. The stressor solution and the test agent solutions were both warmed to 37° C. and pH adjusted to 7.4. The cells are frozen, human, dermal fibroblasts obtained from ATCC (BJ cell line). The cells were cultured and prepared according to the test method described above. The fibroblasts were plated in Gelatin-coated, 96-well plate. Each well contained approximately 4×10^4 cells and 180 μL of fibroblast test medium (i.e., Seahorse Biosciences DMEM, 25 mM glucose and 1 mM pyruvate) at 37° C. and pH 7.4. […]
# [2] = test system: human, dermal fibroblasts (BJ cell line); assay: Oxygen consumption rate (oxidative phosphorylation) of fibroblasts, XF Extracellular Flux Analyzer; format: cell-based; parameters: Average OCR value per treatment group: unit not given here
# Method: as §1
# [3] = rate number 1, before addition of stressor/test agents (basal)
# [4] = rate number 2, before addition of stressor/test agents (basal)
# [5] = rate number 3, before addition of stressor/test agents (basal, reference)
# [6] = rate number 4, 1.5 mM hydrogen peroxide, 0.25 mM niacinamide, 0.025 mM tocoquinone
# [7] = rate number 5, 1.5 mM hydrogen peroxide, 0.25 mM niacinamide, 0.025 mM tocoquinone
# [8] = rate number 6, 1.5 mM hydrogen peroxide, 0.25 mM niacinamide, 0.025 mM tocoquinone
# [9] = rate number 7, 1.5 mM hydrogen peroxide, 0.25 mM niacinamide, 0.025 mM tocoquinone
# [10] = rate number 8, 1.5 mM hydrogen peroxide, 0.25 mM niacinamide, 0.025 mM tocoquinone
# [11] = rate number 9, 1.5 mM hydrogen peroxide, 0.25 mM niacinamide, 0.025 mM tocoquinone
# [12] = rate number 10, 1.5 mM hydrogen peroxide, 0.25 mM niacinamide, 0.025 mM tocoquinone
# [13] = rate number 11, 1.5 mM hydrogen peroxide, 0.25 mM niacinamide, 0.025 mM tocoquinone
# [14] = rate number 12, 1.5 mM hydrogen peroxide, 0.25 mM niacinamide, 0.025 mM tocoquinone
# [15] = rate number 13, 1.5 mM hydrogen peroxide, 0.25 mM niacinamide, 0.025 mM tocoquinone
# [16] = rate number 14, 1.5 mM hydrogen peroxide, 0.25 mM niacinamide, 0.025 mM tocoquinone
# [17] = rate number 15, 1.5 mM hydrogen peroxide, 0.25 mM niacinamide, 0.025 mM tocoquinone
# [18] = rate number 16, 1.5 mM hydrogen peroxide, 0.25 mM niacinamide, 0.025 mM tocoquinone
# [19] = rate number 17, 1.5 mM hydrogen peroxide, 0.25 mM niacinamide, 0.025 mM tocoquinone
# [20] = rate number 18, 1.5 mM hydrogen peroxide, 0.25 mM niacinamide, 0.025 mM tocoquinone
SMILES,"Average ECAR value per treatment group [1, 3]","Average ECAR value per treatment group [1, 4]","Average ECAR value per treatment group [1, 5]","Average ECAR value per treatment group [1, 6]","Average ECAR value per treatment group [1, 7]","Average ECAR value per treatment group [1, 8]","Average ECAR value per treatment group [1, 9]","Average ECAR value per treatment group [1, 10]","Average ECAR value per treatment group [1, 11]","Average ECAR value per treatment group [1, 12]","Average ECAR value per treatment group [1, 13]","Average ECAR value per treatment group [1, 14]","Average ECAR value per treatment group [1, 15]","Average ECAR value per treatment group [1, 16]","Average ECAR value per treatment group [1, 17]","Average ECAR value per treatment group [1, 18]","Average ECAR value per treatment group [1, 19]","Average ECAR value per treatment group [1, 20]","Average OCR value per treatment group [2, 3]","Average OCR value per treatment group [2, 4]",other results
CC1=C(C)C(=O)C(CCC(C)(O)CCCC(C)CCCC(C)CCCC(C)C)=C(C)C1=O (stereo not drawn) [tocoquinone],107.45 percentage of rate 3,99.58 percentage of rate 3,100 percentage of rate 3,56.77 percentage of rate 3,35.13 percentage of rate 3,32.57 percentage of rate 3,32.46 percentage of rate 3,34.54 percentage of rate 3,36.55 percentage of rate 3,36.68 percentage of rate 3,35.75 percentage of rate 3,32.86 percentage of rate 3,29.78 percentage of rate 3,28.15 percentage of rate 3,28.07 percentage of rate 3,30.73 percentage of rate 3,31.49 percentage of rate 3,31.18 percentage of rate 3,101.04,101.44,"effect on reduction in OCR caused by hydrogen peroxide ([2]; in combination with 1.5 mM H2O2, 0.25 mM niacinamide, 0.025 mM tocoquinone): appears to lessen the reduction in OCR caused by the hydrogen peroxide about the same or slightly less than the niacinamide; Average OCR value per treatment group [2, 5]: 100; Average OCR value per treatment group [2, 6]: −21.48; Average OCR value per treatment group [2, 7]: 64.55; Average OCR value per treatment group [2, 8]: 68.43; Average OCR value per treatment group [2, 9]: 59.47; Average OCR value per treatment group [2, 10]: 53.35; Average OCR value per treatment group [2, 11]: 49.83; Average OCR value per treatment group [2, 12]: 48.18; Average OCR value per treatment group [2, 13]: 48.82; Average OCR value per treatment group [2, 14]: 49.81; Average OCR value per treatment group [2, 15]: 47.50; Average OCR value per treatment group [2, 16]: 44.97; Average OCR value per treatment group [2, 17]: 41.00; Average OCR value per treatment group [2, 18]: 37.55; Average OCR value per treatment group [2, 19]: 32.67; Average OCR value per treatment group [2, 20]: 28.15"
"OO [hydrogen peroxide, reference compound]",101.82 percentage of rate 3,100.66 percentage of rate 3,100 percentage of rate 3,48.46 percentage of rate 3,29.55 percentage of rate 3,33.64 percentage of rate 3,37.41 percentage of rate 3,28.20 percentage of rate 3,17.74 percentage of rate 3,15.41 percentage of rate 3,14.87 percentage of rate 3,13.82 percentage of rate 3,13.32 percentage of rate 3,12.78 percentage of rate 3,11.82 percentage of rate 3,11.52 percentage of rate 3,11.36 percentage of rate 3,11.57 percentage of rate 3,97.05,99.80,"effect on extracellular acidification rate (glycolysis metabolism) ([1]; 1.5 mM hydrogen peroxide by itself): substantial decrease in extracellular acidification rate; effect on OCR (oxphos metabolism) ([2]; 1.5 mM H2O2 by itself): relatively sharp decrease in OCR followed by a less rapid increase; Average OCR value per treatment group [2, 5]: 100; Average OCR value per treatment group [2, 6]: −139.75; Average OCR value per treatment group [2, 7]: −4.58; Average OCR value per treatment group [2, 8]: −6.07; Average OCR value per treatment group [2, 9]: −24.10; Average OCR value per treatment group [2, 10]: −34.10; Average OCR value per treatment group [2, 11]: −44.54; Average OCR value per treatment group [2, 12]: −53.81; Average OCR value per treatment group [2, 13]: −58.25; Average OCR value per treatment group [2, 14]: −63.85; Average OCR value per treatment group [2, 15]: −70.69; Average OCR value per treatment group [2, 16]: −73.38; Average OCR value per treatment group [2, 17]: −76.46; Average OCR value per treatment group [2, 18]: −76.97; Average OCR value per treatment group [2, 19]: −76.26; Average OCR value per treatment group [2, 20]: −76.76"
